# Assay results reported in patent US7560468B2, “Substituted 1,4,8-triazaspiro[4,5]decan-2-one compounds” (Gruenenthal GmbH, priority 2004, dated 2009).
# Experiments:
# [1] = tested on: batrachotoxin (BTX) binding site of the sodium channel; test: Affinity to the batrachotoxin (BTX) binding site of the sodium channel; conditions: rat cerebrocortex synaptosomes, [3H]-batrachotoxinin A20 α-benzoate 10 nM; test concentration not given
# 5-HT transporter = biological target: T1, 5-HT transporter (Rattus norvegicus, UniProt P31652); test: Inhibition of 5-HT uptake in synaptosomes; type: biochemical; conditions: for inhibition at 1 µM: read-out: Uptake_5-HT, rat, 1 μM, % inhibition
# T1 construct: from tissue; host or cells: rat brain synaptosomes (marrow/medulla and pons), P2 fraction
# T1 sequence (P31652 whole entry): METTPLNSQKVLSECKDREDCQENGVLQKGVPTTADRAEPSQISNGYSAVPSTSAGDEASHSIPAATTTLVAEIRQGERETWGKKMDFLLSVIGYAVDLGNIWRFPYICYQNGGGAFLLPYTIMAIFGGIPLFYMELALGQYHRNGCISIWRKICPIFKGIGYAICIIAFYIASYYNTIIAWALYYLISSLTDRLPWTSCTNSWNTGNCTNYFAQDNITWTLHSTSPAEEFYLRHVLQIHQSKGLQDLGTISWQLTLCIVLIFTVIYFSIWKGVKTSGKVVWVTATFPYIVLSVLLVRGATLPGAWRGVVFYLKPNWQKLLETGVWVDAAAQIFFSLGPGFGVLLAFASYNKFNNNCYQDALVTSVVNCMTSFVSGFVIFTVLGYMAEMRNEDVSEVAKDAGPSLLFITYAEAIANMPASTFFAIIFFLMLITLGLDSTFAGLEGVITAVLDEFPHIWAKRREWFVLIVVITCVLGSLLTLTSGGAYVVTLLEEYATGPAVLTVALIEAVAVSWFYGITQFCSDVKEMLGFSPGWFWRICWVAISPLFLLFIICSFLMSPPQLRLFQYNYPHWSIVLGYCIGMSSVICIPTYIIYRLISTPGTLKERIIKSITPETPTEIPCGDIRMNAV
Compound,BTX Inhibition [1],other results
"1-Allyl-3-isopropyl-2-oxo-1,4,8-triazaspiro[4,5]decan-8-thiocarboxylic acid (3,5-dichlorobenzol)amide [Example 180]",54,–
"1-Butyl-3-isopropyl-2-oxo-1,4,8-triazaspiro[4,5]decan-8-thiocarboxylic acid (3-chlorobenzol)amide [Example 142]",63,–
"1-Methyl-3-(2-methylsulfanylethyl)-2-oxo-1,4,8-triazaspiro[4,5]decan-8-thiocarboxylic acid (3-trifluoromethylbenzol)amide [Example 194]",36,–
"CC(C)C1NC2(CCN(S(=O)(=O)c3ccc([N+](=O)[O-])cc3)CC2)NC1=O (stereo not drawn) [Example 1, 3-Isopropyl-8-(4-nitrobenzolsulfonyl)-1,4,8-triazaspiro[4,5]decan-2-one]",–,"Uptake_5-HT, rat, 1 μM, % inhibition (5-HT transporter): 55%"
"NCCc1c[nH]c2ccc(O)cc12 [Example 5-HT, serotonin, reference compound]",–,"Km (5-HT transporter; read-out: 5-HT uptake: Km, characteristic data of the 5-HT transporter): 0.084 ± 0.011 µM"
"CCCCN1C(=O)C(CCSC)NC12CCN(S(=O)(=O)c1ccc(Cl)s1)CC2 (stereo not drawn) [Example 12, 1-Butyl-8-(5-chlorothiophen-2-sulfonyl)-3-(2-methylsulfanylethyl)-1,4,8-triazaspiro[4,5]decan-2-one]",–,inhibition at 1 µM (5-HT transporter): 58%
"CCCCN1C(=O)C(CCSC)NC12CCN(S(=O)(=O)c1ccc(C(C)=O)cc1)CC2 (stereo not drawn) [Example 13, 8-(4-Acetylbenzolsulfonyl)-1-butyl-3-(2-methylsulfanylethyl)-1,4,8-triazaspiro[4,5]decan-2-one]",–,"Uptake_5-HT, rat, 1 μM, % inhibition (5-HT transporter): 56%"
"CCCCN1C(=O)C(C(C)C)NC12CCN(S(=O)(=O)c1ccccc1C(=O)OC)CC2 (stereo not drawn) [Example 15, Methyl 2-(1-butyl-3-isopropyl-2-oxo-1,4,8-triazaspiro[4,5]decan-8-sulfonyl)benzoate]",–,inhibition at 1 µM (5-HT transporter): 44%
"CC(C)C1NC2(CCN(S(=O)(=O)c3ccc(F)c(Cl)c3)CC2)N(CCOc2ccccc2)C1=O (stereo not drawn) [Example 17, 8-(3-Chloro-4-fluorobenzolsulfonyl)-3-isopropyl-1-(2-phenoxy-ethyl)-1,4,8-triazaspiro[4,5]decan-2-one]",41,–
"CCCCN1C(=O)C(C(C)C)NC12CCN(S(=O)(=O)c1ccc(F)cc1F)CC2 (stereo not drawn) [Example 19, 1-Butyl-8-(2,4-difluorobenzolsulfonyl)-3-isopropyl-1,4,8-triazaspiro[4,5]decan-2-one]",30,–
"Cc1ccc(S(=O)(=O)N2CCC3(CC2)NC(C(C)C)C(=O)N3CCOc2ccccc2)cc1 (stereo not drawn) [Example 21, 3-Isopropyl-1-(2-phenoxy-ethyl)-8-(toluol-4-sulfonyl)-1,4,8-triazaspiro[4,5]decan-2-one]",54,–
"Cc1cc(S(=O)(=O)N2CCC3(CC2)NC(CC(C)C)C(=O)N3Cc2ccccc2)c(C)cc1Cl (stereo not drawn) [Example 27, 1-Benzyl-8-(4-chloro-2,5-dimethylbenzolsulfonyl)-3-isobutyl-1,4,8-triazaspiro[4,5]decan-2-one]",59,–
"CCCCN1C(=O)C(CCSC)NC12CCN(S(=O)(=O)c1ccc(OC)c(OC)c1)CC2 (stereo not drawn) [Example 30, 1-Butyl-8-(3,4-dimethoxy-benzolsulfonyl)-3-(2-methylsulfanylethyl)-1,4,8-triazaspiro[4,5]decan-2-one]",–,"Uptake_5-HT, rat, 1 μM, % inhibition (5-HT transporter): 53%"
"CCS(=O)(=O)N1CCC2(CC1)NC(CCSC)C(=O)N2Cc1ccccc1 (stereo not drawn) [Example 32, 1-Benzyl-8-ethanesulfonyl-3-(2-methylsulfanylethyl)-1,4,8-triazaspiro[4,5]decan-2-one]",–,inhibition at 1 µM (5-HT transporter): 64%
"COc1ccc(S(=O)(=O)N2CCC3(CC2)NCC(=O)N3Cc2ccccc2F)cc1 [Example 64, 1-(2-Fluorobenzyl)-8-(4-methoxy-benzolsulfonyl)-1,4,8-triazaspiro[4,5]decan-2-one]",42,–
"C=CCN1C(=O)C(C(C)C)NC12CCN(S(=O)(=O)c1c(C)cc(C)cc1C)CC2 (stereo not drawn) [Example 70, 1-Allyl-3-isopropyl-8-(2,4,6-trimethylbenzolsulfonyl)-1,4,8-triazaspiro[4,5]decan-2-one]",60,–
"C=CCN1C(=O)C(CCSC)NC12CCN(S(=O)(=O)c1ccc3c(c1)CN(C(=O)C(F)(F)F)CC3)CC2 (stereo not drawn) [Example 78, 1-Allyl-3-(2-methylsulfanylethyl)-8-[2-(2,2,2-trifluoroacetyl)-1,2,3,4-tetrahydroisoquinolin-7-sulfonyl]-1,4,8-triazaspiro[4,5]decan-2-one]",32,–
"COc1ccc(CNC(=S)N2CCC3(CC2)NC(CCSC)C(=O)N3C)cc1 (stereo not drawn) [Example 111, 1-Methyl-3-(2-methylsulfanylethyl)-2-oxo-1,4,8-triazaspiro[4,5]decan-8-thiocarboxylic acid 4-methoxy-benzylamide]",51,–

Compound,BTX Inhibition [1],other results
"CN1C(=O)C(Cc2ccccc2)NC12CCN(C(=S)NCc1cc(F)ccc1F)CC2 (stereo not drawn) [Example 118, 3-Benzyl-1-methyl-2-oxo-1,4,8-triazaspiro[4,5]decan-8-thiocarboxylic acid (2,5-difluorobenzol)amide]",42,–
"C=CCNC(=S)N1CCC2(CC1)NC(C(C)C)C(=O)N2Cc1ccc(C(=O)OC)cc1 (stereo not drawn) [Example 126, Methyl 4-(8-allylthiocarbamoyl-3-isopropyl-2-oxo-1,4,8-triazaspiro[4,5]dec-1-ylmethyl)benzoate]",37,–
"CCCCN1C(=O)C(CCSC)NC12CCN(C(=S)NCc1ccccc1OC)CC2 (stereo not drawn) [Example 127, 1-Butyl-3-(2-methylsulfanylethyl)-2-oxo-1,4,8-triazaspiro[4,5]decan-8-thiocarboxylic acid (2-methoxy-benzol)amide]",44,–
"CSCCC1NC2(CCN(C(=S)NCc3ccc(Cl)cc3)CC2)N(C)C1=O (stereo not drawn) [Example 133, 1-Methyl-3-(2-methylsulfanylethyl)-2-oxo-1,4,8-triazaspiro[4,5]decan-8-thiocarboxylic acid (4-chlorobenzol)amide]",44,–
"CSCCC1NC2(CCN(C(=S)NCc3ccc(F)cc3)CC2)N(C)C1=O (stereo not drawn) [Example 134, 1-Methyl-3-(2-methylsulfanylethyl)-2-oxo-1,4,8-triazaspiro[4,5]decan-8-thiocarboxylic acid 4-fluorobenzylamide]",50,–
"CSCCC1NC2(CCN(C(=S)NCc3cc(F)ccc3F)CC2)N(C)C1=O (stereo not drawn) [Example 138, 1-Methyl-3-(2-methylsulfanylethyl)-2-oxo-1,4,8-triazaspiro[4,5]decan-8-thiocarboxylic acid (2,5-difluorobenzol)amide]",34,–
"CC(=O)c1cccc(NC(=S)N2CCC3(CC2)NC(CC(C)C)C(=O)N3Cc2ccccc2C#N)c1 (stereo not drawn) [Example 141, 1-(2-Cyanobenzyl)-3-isobutyl-2-oxo-1,4,8-triazaspiro[4,5]decan-8-thiocarboxylic acid (3-acetylbenzol)amide]",50,–
"CSCCC1NC2(CCN(C(=S)NCc3ccc(Cl)cc3)CC2)N(Cc2cccc(C#N)c2)C1=O (stereo not drawn) [Example 185, 1-(3-Cyanobenzyl)-3-(2-methylsulfanylethyl)-2-oxo-1,4,8-triazaspiro[4,5]decan-8-thiocarboxylic acid 4-chlorobenzylamide]",72,–
"C#CCN1C(=O)C(CC(C)C)NC12CCN(C(=S)Nc1c(Cl)cccc1Cl)CC2 (stereo not drawn) [Example 190, 3-Isobutyl-2-oxo-1-prop-2-ynyl-1,4,8-triazaspiro[4,5]decan-8-thiocarboxylic acid (2,6-dichlorobenzol)amide]",53,–
"COC(=O)c1ccc(CN2C(=O)C(C(C)C)NC23CCN(C(=S)NCc2ccc(Cl)cc2)CC3)cc1 (stereo not drawn) [Example 191, Methyl 4-[8-(4-chlorobenzylthiocarbamoyl)-3-isopropyl-2-oxo-1,4,8-triazaspiro[4,5]dec-1-ylmethyl]-benzoate]",74,–
"CSCCC1NC2(CCN(C(=S)NC(C)c3ccccc3)CC2)N(Cc2ccc(F)cc2)C1=O (stereo not drawn) [Example 196, 1-(4-Fluorobenzyl)-3-(2-methylsulfanylethyl)-2-oxo-1,4,8-triazaspiro[4,5]decan-8-thiocarboxylic acid (1-benzol-ethyl)amide]",70,–
"O=C1C(Cc2ccccc2)NC2(CCN(C(=S)NCc3ccc(Cl)cc3)CC2)N1Cc1ccccc1F (stereo not drawn) [Example 197, 3-Benzyl-1-(2-fluorobenzyl)-2-oxo-1,4,8-triazaspiro[4,5]decan-8-thiocarboxylic acid 4-chlorobenzylamide]",77,–
"CC(C)C1NC2(CCN(C(=S)NCc3ccccc3)CC2)N(Cc2ccccc2)C1=O (stereo not drawn) [Example 199, 1-Benzyl-3-isopropyl-2-oxo-1,4,8-triazaspiro[4,5]decan-8-thiocarboxylic acid benzylamide]",44,–
"C=CCN1C(=O)C(C(C)C)NC12CCN(C(=O)Nc1cc(F)ccc1F)CC2 (stereo not drawn) [Example 209, 1-Allyl-3-isopropyl-2-oxo-1,4,8-triazaspiro[4,5]decan-8-carboxylic acid (2,5-difluorobenzol)amide]",31,–
"CC(C)CC1NC2(CCN(C(=O)Nc3cc(F)ccc3F)CC2)N(Cc2ccccc2C#N)C1=O (stereo not drawn) [Example 218, 1-(2-Cyanobenzyl)-3-isobutyl-2-oxo-1,4,8-triazaspiro[4,5]decan-8-carboxylic acid (2,5-difluorobenzol)amide]",40,–
"CSCCC1NC2(CCN(C(=O)NCc3ccc(Cl)c(Cl)c3)CC2)N(Cc2ccc(F)cc2)C1=O (stereo not drawn) [Example 228, 1-(4-Fluorobenzyl)-3-(2-methylsulfanylethyl)-2-oxo-1,4,8-triazaspiro[4,5]decan-8-carboxylic acid 3,4-dichlorobenzylamide]",87,–
"COC(=O)c1ccc(CN2C(=O)C(C(C)C)NC23CCN(C(=O)NCc2ccc(Cl)c(Cl)c2)CC3)cc1 (stereo not drawn) [Example 232, Methyl 4-[8-(3,4-dichlorobenzylcarbamoyl)-3-isopropyl-2-oxo-1,4,8-triazaspiro[4,5]dec-1-ylmethyl]-benzoate]",55,–
"Methyl 4-[8-(2,6-dichlorobenzolthiocarbamoyl)-3-isopropyl-2-oxo-1,4,8-triazaspiro[4,5]dec-1-ylmethyl]-benzoate [Example 135]",38,–
